Laboratory results published in US5773430A, “Serine proteinase inhibitory activity by hydrophobic tetracycline” (Research Foundation of State University of New York, priority 1997, dated 1998).
Entries after “also recorded” stand apart in the source; their conditions may differ. Like-named read-outs stand apart in the source and are kept apart here.

What was measured:
[1] = test system: human neutrophils (live PMN's); assay: Neutrophil (PMN + 0.5 nM PMA)-mediated R22-ECM hydrolysis (3H-proline cpm released in 6 h); type: cell-based; details: for ECM HYDROLYSIS (% CONTROL) / activity at 5 µM / activity at 25 µM / activity at 50 µM: control = hydrolysis in absence of any inhibitor normalized to 100%, 6 h at 37° C.; for activity at 5 µM / activity at 25 µM / activity at 50 µM: Homo sapiens, Neutrophil; for inhibition of ECM degradation, in words: 5-50 μM, Table 1 and FIG. 1
Text: The activity of various tetracyclines was investigated employing an in vitro assay of inflammatory tissue injury in which human neutrophils are allowed to degrade a biosynthetically prepared complete interstitial stromal extracellular matrix (ECM). A neutrophil is one type of leukocyte (polymorphonuclear leukocyte). […] E. J. Roemer, K. J. Stanton, and S. R. Simon, "In Vitro Assay Systems for Inflammatory Cell-Mediated Damage to Interstitial Extracellular Matrix," In Vitro Toxicol. 7,75-81 (1994); E. J. Roemer, K. J. Stanton, and S. R. Simon, "In Vitro Assay Systems for Cell Interactions With Interstitial Extracellular Matrix," In Vitro Toxicol. 7,209-224 (1994).
The serine proteinase inhibiting activity of tetracyclines was tested using an in vitro assay of inflammatory tissue injury in which human neutrophils (live PMN's) were allowed to degrade a biosynthetically prepared complete interstitial stromal extracellular matrix (ECM) produced by cultured R22 rat heart smooth muscle cells as described by Roemer et al. (E. J. Roemer, K. J. Stanton, and S. R. Simon, "In Vitro Assay Systems for Inflammatory Cell-Mediated Damage to Interstitial Extracellular Matrix," In Vitro Toxicol. 7,75-81 (1994); E. J. Roemer, K. J. Stanton, and S. R. Simon, "In Vitro Assay Systems for Cell Interactions With Interstitial Extracellular Matrix," In Vitro Toxicol. 7,209-224 (1994)). Ten different chemically modified tetracyclines (CMTs) designated CMT-1 through CMT-10 and doxycycline, at concentrations ranging from 5 μM to 50 μM, were added to the ECM simultaneously with a suspension of 2×10^6 viable human PMN/mL in Hank's balanced salts solution (HBSS). In these studies, the ECM was metabolically radiolabeled with ^3 H-proline, and counts solubilized after six hours of incubation were measured and compared with counts released after incubation with PMN alone.

[2] = molecular target: T1, human leukocyte elastase (HLE) (Homo sapiens, UniProt P08246); assay: HLE amidolytic activity (methoxysuccinyl-Ala-Ala-Pro-Val-p-nitroanilide); type: biochemical
T1 sequence (P08246 30-267): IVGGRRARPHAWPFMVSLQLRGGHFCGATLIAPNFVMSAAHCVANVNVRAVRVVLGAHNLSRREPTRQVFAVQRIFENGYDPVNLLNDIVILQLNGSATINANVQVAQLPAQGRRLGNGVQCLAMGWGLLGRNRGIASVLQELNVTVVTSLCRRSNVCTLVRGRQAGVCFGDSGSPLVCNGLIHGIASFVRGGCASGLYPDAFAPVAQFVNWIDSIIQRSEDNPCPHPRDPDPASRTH
Text: This oligopeptide is generally assumed to occupy the first five subsites of the extended substrate binding domain in HLE.
To avoid time-dependent adsorption of HLE onto the wells of the 96-well microplates used in the amidolytic assays, the plates were pretreated with a solution of 0.2% bovine serum albumin. […] The […] concentration at which the Dixon plots intersect is a measure of Ki for the inhibitor.
The inhibitory activity of doxycycline towards amidolysis of methoxysuccinyl-Ala-Ala-Pro-Val-p-nitroanilide by HLE was also determined in the presence of 2% DMSO and no detergent, as described above for CMT-3.

MMP-8 = details: in vitro; read-out: K1, inhibition of MMP-8 activity in vitro; cited from earlier work
leukocyte elastase = molecular target: T2, leukocyte elastase (Homo sapiens, UniProt P08246); assay: Leukocyte elastase inhibitory activity; type: biochemical
T2 sequence (P08246 30-247): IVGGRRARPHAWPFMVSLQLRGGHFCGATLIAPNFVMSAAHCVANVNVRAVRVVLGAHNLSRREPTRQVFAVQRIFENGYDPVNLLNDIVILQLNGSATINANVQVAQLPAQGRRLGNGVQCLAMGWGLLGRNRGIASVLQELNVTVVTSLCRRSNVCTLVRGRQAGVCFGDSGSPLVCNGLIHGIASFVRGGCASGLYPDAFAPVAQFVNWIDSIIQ

[3] = test system: human neutrophils (live PMN's); details: cited from earlier work

CC1(O)c2cccc(O)c2C(=O)C2=C(O)C3(O)C(=O)C(C(N)=O)=C(O)CC3CC21 (centres unmarked) [CMT-1, 4-de(dimethylamino)tetracycline]
ECM HYDROLYSIS (% CONTROL) ([1]; 5 μm): 93 % CONTROL
ECM HYDROLYSIS (% CONTROL) ([1]; 25 μm): 95 % CONTROL
ECM HYDROLYSIS (% CONTROL) ([1]; 50 μm): 90 % CONTROL

CN(C)C1C(=O)C(C#N)=C(O)C2(O)C(=O)C3=C(O)c4c(O)cccc4C(C)(O)C3CC12 (centres unmarked) [CMT-2, tetracyclinonitrile]
activity at 5 µM ([1]; 5 μm): 91%
activity at 25 µM ([1]; 25 μm): 95%
activity at 50 µM ([1]; 50 μm): 100%

CC1(O)c2c(Cl)ccc(O)c2C(=O)C2=C(O)C3(O)C(=O)C(C(N)=O)=C(O)CC3CC21 (centres unmarked) [CMT-4, 7-chloro-4-de(dimethylamino)tetracycline]
ECM HYDROLYSIS (% CONTROL) ([1]; 5 μm): 90 % CONTROL
ECM HYDROLYSIS (% CONTROL) ([1]; 25 μm): 98 % CONTROL
ECM HYDROLYSIS (% CONTROL) ([1]; 50 μm): 130 % CONTROL

CC1(O)c2cccc(O)c2C(=O)C2=C(O)C3(O)C(=O)C(C(N)=O)=C(O)C(O)C3CC21 (centres unmarked) [CMT-6, 4-hydroxy-4-de(dimethylamino)tetracycline]
ECM HYDROLYSIS (% CONTROL) ([1]; 5 μm): 109 % CONTROL
ECM HYDROLYSIS (% CONTROL) ([1]; 25 μm): 101 % CONTROL
ECM HYDROLYSIS (% CONTROL) ([1]; 50 μm): 97 % CONTROL

CC1(O)c2cccc(O)c2C(=O)C2=C(O)C3C(=O)C(C(N)=O)=C(O)CC3CC21 (stereo not drawn) [CMT-7, 4-de(dimethylamino)-12α-deoxytetracycline]
ECM HYDROLYSIS (% CONTROL) ([1]; 5 μm): 97 % CONTROL
ECM HYDROLYSIS (% CONTROL) ([1]; 25 μm): 84 % CONTROL
ECM HYDROLYSIS (% CONTROL) ([1]; 50 μm): 100 % CONTROL

C[C@H]1c2cccc(O)c2C(O)=C2C(=O)[C@]3(O)C(O)=C(C(N)=O)C(=O)C[C@@H]3[C@@H](O)[C@@H]21 [CMT-8, 6-deoxy-5α-hydroxy-4-de(dimethylamino)tetracycline]
inhibition of ECM degradation, in words [1]: showed some inhibition of ECM degradation
ECM HYDROLYSIS (% CONTROL) ([1]; 5 μm): 96 % CONTROL
ECM HYDROLYSIS (% CONTROL) ([1]; 25 μm): 82 % CONTROL
ECM HYDROLYSIS (% CONTROL) ([1]; 50 μm): 57 % CONTROL

Cc1c2c(c(O)c3c(O)cccc13)C(=O)C1C(O)=C(C(N)=O)C(=O)CC1C2 (stereo not drawn) [CMT-9, 4-de(dimethylamino)-12α-deoxyanhydrotetracycline]
activity at 5 µM ([1]; 5 μm): 88%
activity at 25 µM ([1]; 25 μm): 215%
activity at 50 µM ([1]; 50 μm): 190%

CN(C)c1ccc(O)c2c1C[C@H]1C[C@H]3CC(O)=C(C(N)=O)C(=O)[C@@]3(O)C(O)=C1C2=O [CMT-10, 4-de(dimethylamino)minocycline]
inhibition of ECM degradation, in words [1]: showed some inhibition of ECM degradation
activity at 5 µM ([1]; 5 μm): 101%
activity at 25 µM ([1]; 25 μm): 85%
activity at 50 µM ([1]; 50 μm): 80%

Cc1c2c(c(O)c3c(O)ccc(Cl)c13)C(=O)C1(O)C(O)=C(C(N)=O)C(=O)C(N(C)C)C1C2 (centres unmarked) [anhydrochlorotetracycline]
potency as inhibitors of the amidolytic activity of HLE, in words [2]: comparably low or no potency

CN(C)[C@@H]1C(O)=C(C(N)=O)C(=O)[C@@]2(O)C(O)=C3C(=O)c4c(O)ccc(Cl)c4[C@@](C)(O)[C@H]3C[C@@H]12 [chlorotetracycline]
potency as inhibitors of the amidolytic activity of HLE, in words [2]: comparably low or no potency

C[C@H]1c2cccc(O)c2C(=O)C2=C(O)[C@]3(O)C(=O)C(C(N)=O)=C(O)[C@@H](N(C)C)[C@@H]3[C@@H](O)[C@@H]21 [doxycycline]
Ki (MMP-8): 25 to 50 µM
leukocyte elastase inhibitory activity, in words (leukocyte elastase): do not exhibit substantial leukocyte elastase inhibitory activity
activity at 5 µM ([1]; 5 μm): 98%
activity at 25 µM ([1]; 25 μm): 92%
activity at 50 µM ([1]; 50 μm): 84%
potency as inhibitors of the amidolytic activity of HLE, in words [2]: only very weak inhibition; also recorded: only a very weak inhibitor of HLE
Ki ([2]; 2% DMSO, no detergent, 100 μM through 300 μM substrate, Dixon plot, read-out: Ki for inhibition of amidolytic activity of HLE): ~300 µM
Ki ([2]; Dixon and Cornish-Bowden plots, FIGS. 3-5, read-out: apparent K1, inhibition of amidolysis): > 300 µM

CN(C)C1C(=O)C(C(N)=O)=C(O)C2(O)C(=O)C3=C(O)c4c(O)ccc(Cl)c4C(C)(O)C3CC12 (stereo not drawn) [epi-chlorotetracycline]
potency as inhibitors of the amidolytic activity of HLE, in words [2]: comparably low or no potency

CN(C)c1ccc(O)c2c1C[C@H]1C[C@H]3[C@H](N(C)C)C(O)=C(C(N)=O)C(=O)[C@@]3(O)C(O)=C1C2=O [minocycline]
leukocyte elastase inhibitory activity, in words (leukocyte elastase): do not exhibit substantial leukocyte elastase inhibitory activity

CN(C)C1C(=O)C(C(N)=O)=C(O)C2(O)C(=O)C3=C(O)c4c(O)cccc4C(C)(O)C3C(O)C12 (centres unmarked) [oxytetracycline]
potency as inhibitors of the amidolytic activity of HLE, in words [2]: comparably low or no potency

tetracycline pyrazole [CMT-5]
ECM HYDROLYSIS (% CONTROL) ([1]; 5 μm): 78 % CONTROL
ECM HYDROLYSIS (% CONTROL) ([1]; 25 μm): 112 % CONTROL
ECM HYDROLYSIS (% CONTROL) ([1]; 50 μm): 102 % CONTROL
potency as inhibitors of the amidolytic activity of HLE, in words [2]: comparably low or no potency

αhd 1-PI: the major endogenous inhibitor of human leukocyte elastase
neutrophil-mediated degradation of ECM, inhibition in words [3]: virtually completely inhibited
